According to patent publication US20260116921A1, “PEPTIDE INHIBITORS OF INTERLEUKIN-23 RECEPTOR AND THEIR USE TO TREAT INFLAMMATORY DISEASES” (priority 2018, published 2026):
Read-outs that look alike come from different tables or passages of the source. Bridge positions count the residues as written; N and C are the ends. Square brackets hold non-standard residues; d marks the D form. Peptide text beside a SMILES is read from it. Trp(7-Me) = Cc1cccc2c(C[C@H](N)C(=O)O)c[nH]c12; 2Nal = N[C@@H](Cc1ccc2ccccc2c1)C(=O)O; AEF = NCCOc1ccc(C[C@H](N)C(=O)O)cc1; Cit = NC(=O)NCCC[C@H](N)C(=O)O; Pen = CC(C)(S)[C@H](N)C(=O)O; αMeK = C[C@](N)(CCCCN)C(=O)O; Aib = CC(C)(N)C(=O)O

Key:
IL-23R = biological target: T1, IL-23R (Homo sapiens, UniProt Q5VWK5); assay: DB cells IL23R pSTAT3 cell assay (pStat3 HTRF); assay type: cell-based
T1 sequence (Q5VWK5 24-629): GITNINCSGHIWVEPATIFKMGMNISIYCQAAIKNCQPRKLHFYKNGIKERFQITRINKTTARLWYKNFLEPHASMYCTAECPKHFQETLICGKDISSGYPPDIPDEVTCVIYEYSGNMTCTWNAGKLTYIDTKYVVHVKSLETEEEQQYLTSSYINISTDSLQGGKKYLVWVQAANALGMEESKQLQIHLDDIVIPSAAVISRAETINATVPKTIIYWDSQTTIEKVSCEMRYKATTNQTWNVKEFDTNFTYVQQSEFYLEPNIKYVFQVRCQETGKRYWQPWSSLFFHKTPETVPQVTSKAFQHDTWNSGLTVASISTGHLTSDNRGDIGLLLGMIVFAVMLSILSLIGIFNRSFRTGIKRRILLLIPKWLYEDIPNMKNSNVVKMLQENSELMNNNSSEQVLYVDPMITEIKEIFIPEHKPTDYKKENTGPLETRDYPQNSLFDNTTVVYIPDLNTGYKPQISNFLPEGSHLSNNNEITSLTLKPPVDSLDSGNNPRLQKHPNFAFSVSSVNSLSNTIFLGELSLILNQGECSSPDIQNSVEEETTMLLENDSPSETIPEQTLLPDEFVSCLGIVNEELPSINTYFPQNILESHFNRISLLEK
In short: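 HTRF readout of lysate pSTAT3 (Tyr705) after two-plate processing. Peptide dilution series co-incubated with IL-23 (0.5 nM final) on 5×10E5 IL-23R-expressing DB cells per well, 30 min, 37 °C.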

[1] = Stability in simulated gastric fluid (SGF); assay type: in vitro ADME; conditions: pH=2, 37° C., 20 μM peptide; for half-life at 20 μM: pig (pepsin), simulated gastric fluid (SGF) with porcine pepsin, read-out: SGF t½ (converted); for SGF t½: porcine pepsin
Description: SGF was prepared by adding 20 mg NaCl, 32 mg porcine pepsin (MP Biochemicals, catalog 02102599), and 70 μl HCl to 10 ml water (final pH=2). Aliquots of SGF (0.5 ml each) were pre-warmed at 37° C. To start the reaction, 1 μl of peptide stock solution (10 mM in DMSO) was added to 0.5 ml SGF and thoroughly mixed such that the final peptide concentration was 20 μM. The reactions were incubated at 37° C. with gentle shaking. At each time point (0, 15, 30, 60 min) 50 μl aliquots were removed and added to 200 ul acetonitrile containing 0.1% formic acid to quench the reaction. Samples are stored at 4° C. until the end of the experiment and centrifuged at 10,000 rpm for 5 minutes. Aliquots of the supernatant were removed, diluted 1:1 into distilled water containing internal standard, and analyzed by LCMS/MS. Percent remaining at each timepoint was calculated based on the peak area response ratio of test to compound to internal standard. Time 0 was set to 100%, and all later timepoints were calculated relative to time 0. Half-lives were calculated by fitting to a first-order exponential decay equation using GraphPad.

in vitro [2] = assay type: in vitro ADME; parameters: half-life: dose or concentration left out as unconfirmed; conditions: pH 6.8, 37° C., § matrix is 100 fold dilution of standard SIF concentration; for SIF t½: simulated intestinal fluid, pancreatin; for half-life: simulated intestinal fluid (SIF) with pancreatin, read-out: SIF t½ (converted)
Description: SIF was prepared by adding 6.8 g of monobasic potassium phosphate and 10.0 g of pancreatin to 1.0 L of water. After dissolution, the pH was adjusted to 6.8 using NaOH. DMSO stocks (2 mM) were first prepared for the test compounds. Aliquots of the DMSO solutions were dosed into 6 individual tubes, each containing 0.5 mL of SIF, which is pre-warmed to 37° C. The final test compound concentration was 20 M. The vials were kept in a benchtop Thermomixer® for the duration of the experiment. At each timepoint (0, 5, 10, 20, 40, 60, or 360 minutes or 24 hours), 1.0 mL of acetonitrile containing 1% formic acid was added to one vial to terminate the reaction. Samples were stored at 4° C. until the end of the experiment. After the final timepoint is sampled, the tubes were mixed and then centrifuged at 3,000 rpm for 10 minutes. Aliquots of the supernatant were removed, diluted 1:1 into distilled water containing internal standard, and analyzed by LCMS/MS. Percent remaining at each timepoint was calculated based on the peak area response ratio of test to compound to internal standard. Time 0 was set to 100%, and all later timepoints were calculated relative to time 0. Half-lives were calculated by fitting to a first-order exponential decay equation using Graphpad.

in vitro [3] = conditions: human, 20% fecal homogenate (supernatant), anaerobic, pH 6.8
in vitro [4] = conditions: cynomolgus monkey, 20% fecal homogenate (supernatant), anaerobic, pH 6.8
NK cells = assay: NK cell based assay (IL-23/IL-18-induced IFNγ, Quantikine ELISA); conditions: human primary NK cells, IL-23 at EC50 to EC75 + IL-18 10 ng/mL, IFNγ after 20 to 24 hours
Description: killer (NK) cells, purified from human peripheral blood of healthy donors by negative selection (Miltenyi Biotech, Cat #130-092-657), were cultured in complete media (RPMI 1640 containing […], L-glutamine and penicillin-streptomycin) in the presence of IL-2 (RnD, Cat #202-IL-010/CF) at 25 ng/mL. After 7 days, cells were centrifuged, and resuspended in complete media at IE6 cells/mL. […] After 20 to 24 hours, IFNγ in the supernatant was quantified using Quantikine ELISA (RnD, Cat #DIF50).

in vitro [5] = conditions: both, SD, rat, plasma (EDTA)
[6] = Table E3, DB cells, IL-23 0.5 nM, 30 minutes at 37° C., read-out: pStat3 HTRF (IC50)

CC(=O)NCCCC[C@H](NC(=O)[C@](C)(CC(C)C)NC(=O)[C@H](Cc1ccc2ccccc2c1)NC(=O)[C@H](Cc1ccc(OCCN)cc1)NC(=O)[C@H]1NC(=O)[C@H](CCC(N)=O)NC(=O)[C@H](Cc2c[nH]c3cc(Cl)ccc23)NC(=O)[C@H]([C@@H](C)O)NC(=O)[C@H](CC(N)=O)NC(=O)[C@@H](NC(C)=O)C(C)(C)SSC1(C)C)C(=O)N[C@@H](CC(N)=O)C(=O)N[C@@H](CC(N)=O)C(N)=O [compound 2]
IC50 (IL-23R): 10 to 100 nM
half-life at 20 μM [1]: 13 h
SIF t½ (in vitro [2]): 24 h

COc1cccc2[nH]cc(C[C@@H]3NC(=O)[C@H]([C@@H](C)O)NC(=O)[C@H](CC(N)=O)NC(=O)[C@@H](NC(C)=O)C(C)(C)SSC(C)(C)[C@@H](C(=O)N[C@@H](Cc4ccc(OCCN)cc4)C(=O)N[C@@H](Cc4ccc5ccccc5c4)C(=O)N[C@@](C)(CC(C)C)C(=O)N[C@@H](CCCCNC(C)=O)C(=O)N[C@@H](CC(N)=O)C(=O)N[C@@H](CC(N)=O)C(N)=O)NC(=O)[C@H](CCC(N)=O)NC3=O)c12 [compound 4]
IC50 (IL-23R): 1 to 10 nM
half-life at 20 μM [1]: 9 h
SIF t½ (in vitro [2]): 24 h
half-life at 20 μM (in vitro [3]): 6 h
half-life at 20 μM (in vitro [4]): 2 h

CC(=O)NCCCC[C@H](NC(=O)[C@](C)(CC(C)C)NC(=O)[C@H](Cc1ccc2ccccc2c1)NC(=O)[C@H](Cc1ccc(OCCN)cc1)NC(=O)[C@H]1NC(=O)[C@H](CCC(N)=O)NC(=O)[C@H](Cc2c[nH]c3cc(C)ccc23)NC(=O)[C@H]([C@@H](C)O)NC(=O)[C@H](CC(N)=O)NC(=O)[C@@H](NC(C)=O)C(C)(C)SSC1(C)C)C(=O)N[C@@H](CC(N)=O)C(=O)N[C@@H](CC(N)=O)C(N)=O [compound 5]
IC50 (IL-23R): 1 to 10 nM
half-life at 20 μM [1]: 12 h
SIF t½ (in vitro [2]): 24 h
half-life at 20 μM (in vitro [3]): 6 h
half-life at 20 μM (in vitro [4]): 2 h

CC(=O)NCCCC[C@H](NC(=O)[C@](C)(CC(C)C)NC(=O)[C@H](Cc1ccc2ccccc2c1)NC(=O)[C@H](Cc1ccc(OCCN)cc1)NC(=O)[C@H]1NC(=O)[C@H](CCC(N)=O)NC(=O)[C@H](Cc2c[nH]c3ccc(F)cc23)NC(=O)[C@H]([C@@H](C)O)NC(=O)[C@H](CC(N)=O)NC(=O)[C@@H](NC(C)=O)C(C)(C)SSC1(C)C)C(=O)N[C@@H](CC(N)=O)C(=O)N[C@@H](CC(N)=O)C(N)=O [compound 7]
IC50 (IL-23R): 10 to 100 nM
half-life at 20 μM [1]: 12 h
SIF t½ (in vitro [2]): 24 h

CC(=O)NCCCC[C@H](NC(=O)[C@](C)(CC(C)C)NC(=O)[C@H](Cc1ccc2ccccc2c1)NC(=O)[C@H](Cc1ccc(OCCN)cc1)NC(=O)[C@H]1NC(=O)[C@H](CCC(N)=O)NC(=O)[C@H](Cc2c[nH]c3c(F)cccc23)NC(=O)[C@H]([C@@H](C)O)NC(=O)[C@H](CC(N)=O)NC(=O)[C@@H](NC(C)=O)C(C)(C)SSC1(C)C)C(=O)N[C@@H](CC(N)=O)C(=O)N[C@@H](CC(N)=O)C(N)=O [compound 8]
IC50 (IL-23R): 10 to 100 nM
half-life at 20 μM [1]: 15 h
SIF t½ (in vitro [2]): 24 h

CC(=O)NCCCC[C@H](NC(=O)[C@](C)(CC(C)C)NC(=O)[C@H](Cc1c[nH]c2cc(Cl)ccc12)NC(=O)[C@H](Cc1ccc(OCCN)cc1)NC(=O)[C@H]1NC(=O)[C@H](CCC(N)=O)NC(=O)[C@H](Cc2c[nH]c3ccccc23)NC(=O)[C@H]([C@@H](C)O)NC(=O)[C@H](CC(N)=O)NC(=O)[C@@H](NC(C)=O)C(C)(C)SSC1(C)C)C(=O)N[C@@H](CC(N)=O)C(=O)N[C@@H](CC(N)=O)C(N)=O [compound 13]
IC50 (IL-23R): 1 to 10 nM
SGF t½ [1]: 24 h
half-life (in vitro [2]): 17 h

CC(=O)NCCCC[C@H](NC(=O)[C@](C)(CC(C)C)NC(=O)[C@H](Cc1c[nH]c2cc(F)ccc12)NC(=O)[C@H](Cc1ccc(OCCN)cc1)NC(=O)[C@H]1NC(=O)[C@H](CCC(N)=O)NC(=O)[C@H](Cc2c[nH]c3ccccc23)NC(=O)[C@H]([C@@H](C)O)NC(=O)[C@H](CC(N)=O)NC(=O)[C@@H](NC(C)=O)C(C)(C)SSC1(C)C)C(=O)N[C@@H](CC(N)=O)C(=O)N[C@@H](CC(N)=O)C(N)=O [compound 14]
IC50 (IL-23R): 10 to 100 nM
SGF t½ [1]: 24 h
half-life (in vitro [2]): 9 h

CC(=O)NCCCC[C@H](NC(=O)[C@](C)(CCCCN)NC(=O)[C@H](Cc1ccc2ccccc2c1)NC(=O)[C@H](Cc1ccc(OCCN)cc1)NC(=O)[C@H]1NC(=O)[C@H](CCCNC(N)=O)NC(=O)[C@H](Cc2c[nH]c3c(C)cccc23)NC(=O)[C@H]([C@@H](C)O)NC(=O)[C@H](CC(N)=O)NC(=O)[C@@H](NC(C)=O)C(C)(C)SSC1(C)C)C(=O)N[C@@H](CC(N)=O)C(=O)NC(C)(C)C(N)=O [compound 264] (Ac-[Pen]NT[Trp(7-Me)][Cit][Pen][AEF][2Nal][αMeK]K(Ac)N[Aib]-NH2; disulfide 1-6)
IC50 (IL-23R; [6]): < 1 nM
IC50 (NK cells): < 10 nM
half-life (in vitro [2]): 18 h
half-life at 20 μM (in vitro [3]): > 24 h
half-life at 20 μM (in vitro [4]): > 24 h
half-life at 20 μM (in vitro [5]): > 24 h

CC(=O)NCCCC[C@@H]1NC(=O)[C@H](Cc2c[nH]c3c(C)cccc23)NC(=O)[C@H]([C@@H](C)O)NC(=O)[C@H](CC(N)=O)NC(=O)[C@@H](NC(C)=O)C(C)(C)SSC(C)(C)[C@@H](C(=O)N[C@@H](Cc2ccc(OCCN)cc2)C(=O)N[C@@H](Cc2ccc3ccccc3c2)C(=O)N[C@@](C)(CCCCN)C(=O)N[C@@H](CCCCNC(C)=O)C(=O)N[C@@H](CO)C(=O)NCCC(N)=O)NC1=O [compound 271]
IC50 (IL-23R; [6]): 1 to 10 nM
IC50 (NK cells): < 10 nM
half-life (in vitro [2]): 22 h
half-life at 20 μM (in vitro [3]): > 24 h
half-life at 20 μM (in vitro [4]): > 24 h
half-life at 20 μM (in vitro [5]): > 24 h

CC(=O)NCCCC[C@@H]1NC(=O)[C@H](Cc2c[nH]c3c(C)cccc23)NC(=O)[C@H]([C@@H](C)O)NC(=O)[C@H](CC(N)=O)NC(=O)[C@@H](NC(C)=O)C(C)(C)SSC(C)(C)[C@@H](C(=O)N[C@@H](Cc2ccc(OCCN)cc2)C(=O)N[C@@H](Cc2ccc3ccccc3c2)C(=O)N[C@@](C)(CCCCN)C(=O)N[C@@H](CCC(=O)O)C(=O)NCCC(=O)NCCC(N)=O)NC1=O [compound 273]
IC50 (IL-23R; [6]): 1 to 10 nM
IC50 (NK cells): < 10 nM
half-life (in vitro [2]): 8 h
half-life at 20 μM (in vitro [3]): > 24 h
half-life at 20 μM (in vitro [4]): 12 h
half-life at 20 μM (in vitro [5]): > 24 h

CC(=O)NCCCC[C@H](NC(=O)[C@](C)(CCCN)NC(=O)[C@H](Cc1ccc2ccccc2c1)NC(=O)[C@H](Cc1ccc(OCCN)cc1)NC(=O)[C@H]1NC(=O)[C@H](CCC(N)=O)NC(=O)[C@H](Cc2c[nH]c3c(C)cccc23)NC(=O)[C@H]([C@@H](C)O)NC(=O)[C@H](CC(N)=O)NC(=O)[C@@H](NC(C)=O)C(C)(C)SSC1(C)C)C(=O)N[C@@H](CC(N)=O)C(=O)NCCC(N)=O [compound 278]
IC50 (IL-23R; [6]): < 1 nM
IC50 (NK cells): < 10 nM
half-life (in vitro [2]): 19 h
half-life at 20 μM (in vitro [3]): > 24 h
half-life at 20 μM (in vitro [4]): 15 h
half-life at 20 μM (in vitro [5]): > 24 h

CC(=O)N[C@@H]1C(=O)N[C@@H](CC(N)=O)C(=O)N[C@@H]([C@@H](C)O)C(=O)N[C@@H](Cc2c[nH]c3c(C)cccc23)C(=O)N[C@@H](CCC(N)=O)C(=O)N[C@H](C(=O)N[C@@H](Cc2ccc(OCCN)cc2)C(=O)N[C@@H](Cc2ccc3ccccc3c2)C(=O)N[C@@](C)(CCCCN)C(=O)N[C@@H](CCC(=O)O)C(=O)N[C@@H](CC(N)=O)C(=O)NCCC(N)=O)C(C)(C)SSC1(C)C [compound 282]
IC50 (IL-23R; [6]): 1 to 10 nM
IC50 (NK cells): < 10 nM
half-life at 20 μM (in vitro [3]): > 24 h
half-life at 20 μM (in vitro [4]): 22 h
half-life at 20 μM (in vitro [5]): > 24 h
